Active and inactive are the calls of the source. No cut-off for these calls is given here.
Columns and labels:
[1] = Half life in C57 mouse at 10 mg/kg, po; format: ADME, organism-based; design: dose 10 mg/kg, route oral; settings: in vivo
[2] = molecular target: T1, Peroxisome proliferator-activated receptor gamma (Homo sapiens) (UniProt P37231); assay: Binding affinity to PPARgamma
T1 sequence (whole entry): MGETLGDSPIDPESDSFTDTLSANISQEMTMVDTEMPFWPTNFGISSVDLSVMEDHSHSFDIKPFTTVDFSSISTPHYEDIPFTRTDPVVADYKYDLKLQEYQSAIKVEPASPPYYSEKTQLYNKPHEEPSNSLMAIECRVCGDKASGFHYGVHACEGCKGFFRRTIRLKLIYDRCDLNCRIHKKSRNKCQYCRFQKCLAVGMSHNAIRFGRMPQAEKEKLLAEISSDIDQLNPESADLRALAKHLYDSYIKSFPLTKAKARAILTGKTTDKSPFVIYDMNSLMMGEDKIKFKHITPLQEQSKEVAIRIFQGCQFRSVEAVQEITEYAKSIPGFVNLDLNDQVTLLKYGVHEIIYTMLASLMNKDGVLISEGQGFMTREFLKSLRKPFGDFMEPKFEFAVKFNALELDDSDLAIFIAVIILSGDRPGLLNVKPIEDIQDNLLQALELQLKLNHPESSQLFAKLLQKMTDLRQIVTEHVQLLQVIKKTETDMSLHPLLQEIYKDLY

[3] = molecular target: T2, Nuclear receptor subfamily 1 group I member 2 (Homo sapiens, UniProt O75469); assay: Binding affinity to PXR
T2 sequence (O75469 whole entry): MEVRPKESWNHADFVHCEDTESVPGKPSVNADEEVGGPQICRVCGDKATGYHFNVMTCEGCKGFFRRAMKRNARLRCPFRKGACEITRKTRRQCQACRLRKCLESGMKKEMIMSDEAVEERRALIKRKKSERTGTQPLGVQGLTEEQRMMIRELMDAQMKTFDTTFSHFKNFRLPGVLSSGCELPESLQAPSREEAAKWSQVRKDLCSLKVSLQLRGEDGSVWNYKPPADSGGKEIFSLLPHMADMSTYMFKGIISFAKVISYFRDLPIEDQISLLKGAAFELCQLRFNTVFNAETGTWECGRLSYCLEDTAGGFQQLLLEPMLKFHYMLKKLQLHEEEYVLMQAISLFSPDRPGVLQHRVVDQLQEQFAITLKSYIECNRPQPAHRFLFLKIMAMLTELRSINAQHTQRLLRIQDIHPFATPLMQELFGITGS

[4] = molecular target: T3, Mineralocorticoid receptor (Homo sapiens) (UniProt P08235); assay: Binding affinity to mineralocorticoid receptor
T3 sequence (whole entry): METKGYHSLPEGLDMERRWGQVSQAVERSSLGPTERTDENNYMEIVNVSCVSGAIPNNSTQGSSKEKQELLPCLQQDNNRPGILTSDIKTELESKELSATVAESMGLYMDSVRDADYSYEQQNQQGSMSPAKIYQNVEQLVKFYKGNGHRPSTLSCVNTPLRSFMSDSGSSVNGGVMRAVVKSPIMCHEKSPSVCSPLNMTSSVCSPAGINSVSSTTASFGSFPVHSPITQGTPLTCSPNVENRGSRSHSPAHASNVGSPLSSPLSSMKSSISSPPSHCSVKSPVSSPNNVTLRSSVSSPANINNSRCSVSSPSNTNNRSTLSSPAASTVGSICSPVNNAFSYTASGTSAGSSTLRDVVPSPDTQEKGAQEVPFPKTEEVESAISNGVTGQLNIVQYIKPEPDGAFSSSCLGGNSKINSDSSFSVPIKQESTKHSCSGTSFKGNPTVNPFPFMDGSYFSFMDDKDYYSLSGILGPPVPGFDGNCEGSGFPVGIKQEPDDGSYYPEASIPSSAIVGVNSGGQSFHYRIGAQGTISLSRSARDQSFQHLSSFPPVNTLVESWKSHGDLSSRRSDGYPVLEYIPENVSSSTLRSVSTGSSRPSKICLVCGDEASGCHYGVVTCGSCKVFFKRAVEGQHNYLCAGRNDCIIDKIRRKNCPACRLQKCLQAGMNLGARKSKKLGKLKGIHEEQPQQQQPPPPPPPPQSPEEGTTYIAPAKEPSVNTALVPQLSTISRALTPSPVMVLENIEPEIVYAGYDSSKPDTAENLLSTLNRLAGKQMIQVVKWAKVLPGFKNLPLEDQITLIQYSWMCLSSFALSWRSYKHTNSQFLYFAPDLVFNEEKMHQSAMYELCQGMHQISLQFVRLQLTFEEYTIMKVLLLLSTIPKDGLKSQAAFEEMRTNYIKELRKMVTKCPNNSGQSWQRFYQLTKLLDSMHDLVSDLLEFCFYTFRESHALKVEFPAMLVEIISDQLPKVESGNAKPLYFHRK

[5] = Binding affinity to thyroid hormone receptor
Mus musculus [6] = assay: Antiatherosclerotic activity against high fat/high cholesterol fed LDLR-deficient mouse assessed as reduction in aortic arch lesion burden at 0.6 mg/kg/day administered with diet relative to control; format: functional, Pharyngeal arch artery; design: scale not given: the % may be the effect or the level left
Mus musculus [7] = assay: Antiatherosclerotic activity against high fat/high cholesterol fed LDLR-deficient mouse assessed as reduction in aortic arch lesion burden at 3 mg/kg/day administered with diet relative to control; format: functional, Pharyngeal arch artery; design: scale not given: the % may be the effect or the level left
[8] = Plasma concentration in high fat/high cholesterol fed LDLR-deficient mouse at 0.6 mg/kg, qd administered with diet for 8 weeks measured after 3 hrs of last dose; format: ADME, organism-based; design: dose 0.6 mg/kg; settings: po
[9] = molecular target: T4, Oxysterols receptor LXR-beta (Homo sapiens, UniProt P55055); assay: Displacement of [3H]T0901317 from human LXRbeta ligand binding domain
T4 sequence (P55055 whole entry, the tested form may be a part): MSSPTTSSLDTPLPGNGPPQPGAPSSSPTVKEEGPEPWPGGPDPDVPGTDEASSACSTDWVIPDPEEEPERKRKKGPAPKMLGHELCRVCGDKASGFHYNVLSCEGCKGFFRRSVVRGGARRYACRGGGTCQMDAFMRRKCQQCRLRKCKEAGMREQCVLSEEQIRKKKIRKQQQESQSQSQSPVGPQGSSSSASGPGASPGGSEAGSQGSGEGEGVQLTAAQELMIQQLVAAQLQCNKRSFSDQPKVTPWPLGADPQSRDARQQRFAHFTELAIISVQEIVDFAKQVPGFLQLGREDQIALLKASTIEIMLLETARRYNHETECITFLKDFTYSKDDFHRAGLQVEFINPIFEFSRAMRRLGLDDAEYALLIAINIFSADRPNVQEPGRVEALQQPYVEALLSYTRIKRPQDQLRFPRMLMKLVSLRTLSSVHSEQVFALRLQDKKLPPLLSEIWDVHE

[10] = molecular target: T5, Oxysterols receptor LXR-alpha (Homo sapiens, UniProt Q13133); assay: Displacement of [3H]T0901317 from human LXRalpha ligand binding domain
T5 sequence (Q13133 whole entry): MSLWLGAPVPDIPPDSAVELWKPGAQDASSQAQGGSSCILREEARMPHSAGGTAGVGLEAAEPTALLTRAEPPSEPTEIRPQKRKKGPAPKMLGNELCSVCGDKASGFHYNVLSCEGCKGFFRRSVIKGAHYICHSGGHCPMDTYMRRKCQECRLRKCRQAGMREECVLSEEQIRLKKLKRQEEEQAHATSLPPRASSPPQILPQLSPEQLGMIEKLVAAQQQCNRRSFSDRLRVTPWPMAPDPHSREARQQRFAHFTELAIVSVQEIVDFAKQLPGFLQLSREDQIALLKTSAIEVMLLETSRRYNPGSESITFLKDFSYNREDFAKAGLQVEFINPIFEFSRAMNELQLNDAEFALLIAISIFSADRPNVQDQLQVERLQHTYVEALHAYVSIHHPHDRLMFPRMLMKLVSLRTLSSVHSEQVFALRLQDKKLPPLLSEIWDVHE

[11] = molecular target: T4, Oxysterols receptor LXR-beta
[12] = molecular target: T4, Oxysterols receptor LXR-beta; remark: listed apart in the source
Mus musculus [13] = assay: Antiatherosclerotic activity against high fat/high cholesterol fed LDLR-deficient mouse assessed as Lipc gene regulation at 0.6 mg/kg administered with diet for 7 days by Experion chip analysis; format: functional, organism-based; design: dose 0.6 mg/kg
Mus musculus [14] = assay: Antiatherosclerotic activity against high fat/high cholesterol fed LDLR-deficient mouse assessed as pltp gene regulation at 3 mg/kg administered with diet for 7 days by Experion chip analysis; format: functional, organism-based; design: dose 3 mg/kg

SMILES | half-life [1] | Activity [2] | Activity [3] | Activity [4] | Activity [5] | Activity (Mus musculus [6]) | Activity (Mus musculus [7]) | concentration at 3 h [8] | IC50 [9] | IC50 [10] | EC50 [11] | EC50 [12] | Activity (Mus musculus [13]) | Activity (Mus musculus [14])
Cc1nc2c(C(F)(F)F)cccc2nc1-c1ccc(-c2cccc(S(C)(=O)=O)c2)cc1 | > 20 h | inactive | Not Active | inactive | inactive | 20% | 51% | 1.02 µg/mL | 0.053 µM | > 1 µM | > 1 µM | 0.58 µM |  | 
O=C(O)Cc1cccc(OCCCN(Cc2cccc(C(F)(F)F)c2Cl)CC(c2ccccc2)c2ccccc2)c1 |  |  |  |  |  |  |  |  |  |  |  |  | Active | Active

From ChEMBL document CHEMBL1156230, “Identification of phenylsulfone-substituted quinoxaline (WYE-672) as a tissue selective liver X-receptor (LXR) agonist” (J Med Chem, 2010)
